In assay [1] the target is KRAS G12D / Ras binding domain of C-RAF (Homo sapiens (Human), UniProt P01116, G12D). Description: RAS:RAF-RBD binding assay (cRaf), TR-FRET. As to conditions: biotinylated KRAS G12D, GST-C-RAF RBD. Background: Time-resolved FRET reads energy transfer from a long-lived donor to a nearby acceptor.
The subject of assay [2] is AsPC-1 cells containing homozygous KRAS-G12D activating mutation. The assay is described as follows: Cellular phospho-ERK assay (Examples 1a-106). Format: cell-based. The conditions noted are these: AsPC-1 cells, 2 hours, ratio of p-Erk vs total Erk, read-out: IC50 (nM) pERK (Cell). The text has this: 5% CO? overnight. […] Assay plates were read on a EnVision Multimode Plate Reader (PerkinElmer) and the ratio of p-Erk vs total Erk in each well was used as the final readout.

Assay [3] addresses KRAS protein containing G12D mutation (Homo sapiens (Human), UniProt P01116, G12D). Description: SOS-catalyzed nucleotide exchange assay (GNE), TR-FRET. It counts as biochemical. As to conditions: biotinylated KRAS G12D, SOS and GTP, 60-minute incubation. On the procedure: Compounds are added to this complex and then after a 60-minute incubation time the mixture is treated with SOS and unlabeled GTP. Small molecule inhibitors stabilize the Bodipy-GDP complex whereas the untreated protein rapidly exchanges Bodipy-GDP for unlabeled GTP resulting in reduced TR-FRET signal.
This solution is referred to as biotinylated KRAS G12D stock solution.

Where two headings read alike, the source gives them in different places.

For orientation: IC50 means the concentration needed to halve the response being measured.

KRAS protein containing G12D mutation, sequence (P01116 other isoform, or with tags, fused parts or gaps G12D (already in the parent)): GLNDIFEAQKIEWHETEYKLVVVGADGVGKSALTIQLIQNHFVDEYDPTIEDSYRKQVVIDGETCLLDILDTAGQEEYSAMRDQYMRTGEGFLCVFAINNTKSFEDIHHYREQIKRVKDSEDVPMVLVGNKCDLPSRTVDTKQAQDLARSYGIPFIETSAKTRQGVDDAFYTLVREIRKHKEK
KRAS G12D / Ras binding domain of C-RAF, sequence (P01116 other isoform, or with tags, fused parts or gaps G12D (already in the parent)): as above

For `CN1C[C@H](F)C[C@H]1COc1nc(N2C[C@H]3CC[C@@](C)(C2)N3)c2cc(F)c(-c3cc(O)cc4ccccc34)c(F)c2n1` [Ex 70, 4-(6,8-difluoro-2-(((2S,4R)-4-fluoro-1-methylpyrrolidin-2-yl)methoxy)-4-((1S,5R)-1-methyl-3,8-diazabicyclo[3.2.1]octan-3-yl)quinazolin-7-yl)naphthalen-2-ol], the IC50 in assay [1] (IC50 (nM) (cRaf)) was 5390 nM; in assay [2] (Homo sapiens, ASPC1, 2 h), 2330 nM; in assay [3], 43.5 nM.

Take `Cc1cc2[nH]ncc2c(-c2c(F)cc3c(N4CC5CCC(C4)N5)nc(OCC4(CN5CCOCC5)CC4)nc3c2F)c1C(F)(F)F` [Ex 72, 4-((1-(((4-(3,8-diazabicyclo[3.2.1]octan-3-yl)-6,8-difluoro-7-(6-methyl-5-(trifluoromethyl)-1H-indazol-4-yl)quinazolin-2-yl)oxy)methyl)cyclopropyl)methyl)morpholine]: the IC50 in assay [1] (IC50 (nM) (cRaf)) came out at 7440 nM; in assay [2] (Homo sapiens, ASPC1, 2 h), 2500 nM; in assay [3], 30.8 nM.

With `Cc1cc2[nH]nc(C)c2c(-c2c(F)cc3c(N4C[C@H]5CC[C@@](C)(C4)N5)nc(OC[C@]4(CN(C)C)CC4(F)F)nc3c2F)c1Cl` [Ex 79, 1-((1R)-1-(((7-(5-chloro-3,6-dimethyl-1H-indazol-4-yl)-6,8-difluoro-4-((1S,5R)-1-methyl-3,8-diazabicyclo[3.2.1]octan-3-yl)quinazolin-2-yl)oxy)methyl)-2,2-difluorocyclopropyl)-N,N-dimethylmethanamine], the IC50 came to 4410 nM in assay [1] (IC50 (nM) (cRaf)); 1930 nM in assay [2] (Homo sapiens, ASPC1, 2 h); 72.5 nM in assay [3].

Turning to `C[C@]12CC[C@H](CN(c3nc(OCC4(CN5CC[C@@H](F)C5)CC4)nc4c(F)c(-c5cc(O)cc6ccccc56)c(F)cc34)C1)N2` [Ex 81, 4-(6,8-difluoro-2-((1-(((R)-3-fluoropyrrolidin-1-yl)methyl)cyclopropyl)methoxy)-4-((1S,5R)-1-methyl-3,8-diazabicyclo[3.2.1]octan-3-yl)quinazolin-7-yl)naphthalen-2-ol], the IC50 was determined as 1980 nM in assay [1] (IC50 (nM) (cRaf)); 467 nM in assay [2] (Homo sapiens, ASPC1, 2 h); 16.5 nM in assay [3].

For `Cc1cc2[nH]ncc2c(-c2c(F)cc3c(N4C[C@H]5CC[C@@](C)(C4)N5)nc(OC[C@]4(CN(C)C)CC4(F)F)nc3c2F)c1C` [Ex 82, 1-((1R)-1-(((7-(5,6-dimethyl-1H-indazol-4-yl)-6,8-difluoro-4-((1S,5R)-1-methyl-3,8-diazabicyclo[3.2.1]octan-3-yl)quinazolin-2-yl)oxy)methyl)-2,2-difluorocyclopropyl)-N,N-dimethylmethanamine], the IC50 worked out at 14800 nM in assay [1] (IC50 (nM) (cRaf)); 2200 nM in assay [2] (Homo sapiens, ASPC1, 2 h); 89.3 nM in assay [3].

Regarding `Cc1c(Cl)cc2[nH]nc(C)c2c1-c1c(F)cc2c(N3C[C@H]4CC[C@@](C)(C3)N4)nc(OCC3(CN4CC[C@@H](F)C4)CC3)nc2c1F` [Ex 84, 7-(6-chloro-3,5-dimethyl-1H-indazol-4-yl)-6,8-difluoro-2-((1-(((R)-3-fluoropyrrolidin-1-yl)methyl)cyclopropyl)methoxy)-4-((1S,5R)-1-methyl-3,8-diazabicyclo[3.2.1]octan-3-yl)quinazoline], the IC50 in assay [1] (IC50 (nM) (cRaf)) amounted to 9320 nM; in assay [2] (Homo sapiens, ASPC1, 2 h), 6160 nM; in assay [3], 156 nM.

Turning to `Cc1cc2[nH]nc(C)c2c(-c2c(F)cc3c(N4C[C@H]5CC[C@@](C)(C4)N5)nc(OCC4(CN5CC[C@@H](F)C5)CC4)nc3c2F)c1C` [Ex 85, 6,8-difluoro-2-((1-(((R)-3-fluoropyrrolidin-1-yl)methyl)cyclopropyl)methoxy)-4-((1S,5R)-1-methyl-3,8-diazabicyclo [3.2.1]octan-3-yl)-7-(3,5,6-trimethyl-1H-indazol-4-yl)quinazoline], the IC50 in assay [1] (IC50 (nM) (cRaf)) is 18900 nM; in assay [2] (Homo sapiens, ASPC1, 2 h), 5620 nM; in assay [3] it was 255 nM.

As for `Cc1cc2[nH]ncc2c(-c2c(F)cc3c(N4C[C@H]5CC[C@@](C)(C4)N5)nc(OC[C@@]45CCCN4C[C@H](F)C5)nc3c2F)c1C(F)(F)F` [Ex 86, 6,8-difluoro-2-(((2R,7aS)-2-fluorotetrahydro-1H-pyrrolizin-7a(5H)-yl)methoxy)-7-(6-methyl-5-(trifluoromethyl)-1H-indazol-4-yl)-4-((1S,5R)-1-methyl-3,8-diazabicyclo [3.2.1]octan-3-yl)quinazoline], the IC50 stood at 268 nM in assay [1] (IC50 (nM) (cRaf)); 213 nM in assay [2] (Homo sapiens, ASPC1, 2 h); 0.723 nM in assay [3].

With `CN1CCC[C@H]1COc1nc(N2CC3CCC(C2)N3)c2cc(Cl)c(-c3cc(O)cc4ccccc34)c(F)c2n1` [Ex. 5, 4-(4-(3.8-diazabicyclo[3.2.1]octan-3-yl)-6-chloro-8-fluoro-2-(((S)-1-methylpyrrolidin-2-yl)methoxy)quinazolin-7-yl)naphthalen-2-ol], the IC50 in assay [1] (read-out: IC50 (nM) (cRaf)) came out at 17300 nM; in assay [2] it was 6640 nM; in assay [3], 106 nM.

Regarding `Cc1cc(N)nc(-c2c(F)cc3c(N4CC5CCC(C4)N5)nc(OCC4(CN5CCOCC5)CC4)nc3c2F)c1C(F)(F)F` [Ex. 87, 6-(4-(3.8-diazabicyclo[3.2.1]octan-3-yl)-6,8-difluoro-2-((1-(morpholinomethyl)cyclopropyl)methoxy)quinazolin-7-yl)-4-methyl-5-(trifluoromethyl)pyridin-2-amine], the IC50 in assay [1] (read-out: IC50 (nM) (cRaf)) is 11400 nM; in assay [2], 1340 nM; in assay [3] it was 37.4 nM.

Take `C[C@]12CC[C@H](CN(c3nc(OC[C@@]45CCCN4C[C@H](F)C5)nc4c(F)c(-c5cc(O)cc6cccc(Cl)c56)c(F)cc34)C1)N2` [Ex. 89, 5-chloro-4-(6,8-difluoro-2-(((2R,7aS)-2-fluorotetrahydro-1H-pyrrolizin-7a(5H)-yl)methoxy)-4-((1S,5R)-1-methyl-3,8-diazabicyclo[3.2.1]octan-3-yl)quinazolin-7-yl)naphthalen-2-ol]: the IC50 in assay [1] (IC50 (nM) (cRaf)) was found to be 31.8 nM; in assay [2] (Homo sapiens, ASPC1, 2 h), 46 nM; in assay [3], 0.565 nM.

For `C[C@]12CC[C@H](CN(c3nc(OCC4(CN5CC[C@@H](F)C5)CC4)nc4c3CCN(c3cccc5cccc(Br)c35)C4)C1)N2` [Ex. 93, 7-(8-bromonaphthalen-1-yl)-2-((1-(((R)-3-fluoropyrrolidin-1-yl)methyl)cyclopropyl)methoxy)-4-((1S,5R)-1-methyl-3,8-diazabicyclo[3.2.1]octan-3-yl)-5,6,7,8-tetrahydropyrido[3.4-d]pyrimidine], the IC50 stood at 35300 nM in assay [1] (read-out: IC50 (nM) (cRaf)), 7130 nM in assay [2] and 437 nM in assay [3].

For the molecule `O=c1oc(-c2cc(O)cc3ccccc23)cc2nc(OCC3(CN4CCOCC4)CC3)nc(N3CC4CCC(C3)N4)c12` [Ex. 95, 4-(3.8-diazabicyclo[3.2.1]octan-3-yl)-7-(3-hydroxynaphthalen-1-yl)-2-((1-(morpholinomethyl)cyclopropyl)methoxy)-5H-pyrano[4.3-d]pyrimidin-5-one], the IC50 in assay [1] (read-out: IC50 (nM) (cRaf)) was found to be 15900 nM; in assay [2], 10800 nM; in assay [3], 73.4 nM.

Take `C[C@]12CC[C@H](CN(c3nc(OC[C@@]45CCCN4C[C@H](F)C5)nc4c(F)c(-c5cc(O)cc6cccc(Cl)c56)ncc34)C1)N2` [Ex. 99, 5-chloro-4-(8-fluoro-2-(((2R,7aS)-2-fluorotetrahydro-1H-pyrrolizin-7a(5H)-yl)methoxy)-4-((1S,5R)-1-methyl-3,8-diazabicyclo[3.2.1]octan-3-yl)pyrido[4,3-d]pyrimidin-7-yl)naphthalen-2-ol]: the IC50 came to 57.5 nM in assay [1] (read-out: IC50 (nM) (cRaf)); 243 nM in assay [2] (Homo sapiens, ASPC1, 2 h); 2.46 nM in assay [3].

Regarding `CN(C)C[C@@]1(COc2nc(N3C[C@H]4CC[C@@](C)(C3)N4)c3cnc(-c4cc(O)cc5cccc(Cl)c45)c(F)c3n2)CC1(F)F` [Ex. 100, 5-chloro-4-(2-(((R)-1-((dimethylamino)methyl)-2,2-difluorocyclopropyl)methoxy)-8-fluoro-4-((1S,5R)-1-methyl-3,8-diazabicyclo[3.2.1]octan-3-yl)pyrido[4,3-d]pyrimidin-7-yl)naphthalen-2-ol], the IC50 worked out at 89.9 nM in assay [1] (IC50 (nM) (cRaf)); 99.8 nM in assay [2] (Homo sapiens, ASPC1, 2 h); 1.56 nM in assay [3].

Take `CN(C)CC1(COc2nc(N3C[C@H]4CC[C@@](C)(C3)N4)c3nnc(-c4cc(O)cc5ccccc45)cc3n2)CC1` [Ex. 101, 4-(6-((1-((dimethylamino)methyl)cyclopropyl)methoxy)-8-((1S,5R)-1-methyl-3,8-diazabicyclo[3.2.1]octan-3-yl)pyrimido[5,4-c]pyridazin-3-yl)naphthalen-2-ol]: the IC50 was 20900 nM in assay [1] (IC50 (nM) (cRaf)); 42200 nM in assay [2] (Homo sapiens, ASPC1, 2 h); 1020 nM in assay [3].

Take `CN(C)CC1(COc2nc(N3C[C@@H]4CC[C@H]3CN4)c3cc(F)c(-c4cc(O)cc5ccccc45)c(F)c3n2)CC1` [Example 7, 4-(4-((1S,4S)-2,5-diazabicyclo[2.2.2]octan-2-yl)-2-((1-((dimethylamino)methyl)cyclopropyl)methoxy)-6,8-difluoroquinazolin-7-yl)naphthalen-2-ol]: the IC50 in assay [1] (IC50 (nM) (cRaf)) came out at 2990 nM; in assay [2] (Homo sapiens, ASPC1, 2 h), 5020 nM; in assay [3], 35.5 nM.

Consider `CN(C)CC1(COc2nc(N3C[C@@H]4CC[C@](C)(C3)N4)c3cc(F)c(-c4cc(O)cc5ccccc45)c(F)c3n2)CC1` [Example 20, 4-(2-((1-((dimethylamino)methyl)cyclopropyl)methoxy)-6,8-difluoro-4-((1R,5S)-1-methyl-3,8-diazabicyclo[3.2.1]octan-3-yl)quinazolin-7-yl)naphthalen-2-ol], for which the IC50 was 14400 nM in assay [1] (IC50 (nM) (cRaf)); 3500 nM in assay [2] (Homo sapiens, ASPC1, 2 h); 117 nM in assay [3].

The record behind these values is US20240239788A1, “SMALL MOLECULE INHIBITORS OF KRAS G12D MUTANT” (Merck Sharp & Dohme LLC, priority 2021, published 2024).
